Data from patent publication US12528802B2, “Heterocyclic compound” (Takeda Pharmaceutical Company Limited, priority 2019, dated 2026).

target: T1, glucosylceramide synthase (Homo sapiens, UniProt Q16739); assay: Glucosylceramide synthase (GCS) enzyme assay, microsome fraction, C8 glucosylceramide quantified by Rapidfire MS/MS; assay type: biochemical; settings: test compound 10 μM; 1.7 μM UDP-glucose, 3 μM C8 ceramide; room temperature 60 min; read-out: GCS enzyme inhibitory rate at 10 μM (%) (% of control)
T1 construct: made in house; host or cells: Expi293F cells (transient expression, pcDNA3.3-TOPO vector); microsome fraction used as enzyme source
T1 sequence (Q16739 1-394): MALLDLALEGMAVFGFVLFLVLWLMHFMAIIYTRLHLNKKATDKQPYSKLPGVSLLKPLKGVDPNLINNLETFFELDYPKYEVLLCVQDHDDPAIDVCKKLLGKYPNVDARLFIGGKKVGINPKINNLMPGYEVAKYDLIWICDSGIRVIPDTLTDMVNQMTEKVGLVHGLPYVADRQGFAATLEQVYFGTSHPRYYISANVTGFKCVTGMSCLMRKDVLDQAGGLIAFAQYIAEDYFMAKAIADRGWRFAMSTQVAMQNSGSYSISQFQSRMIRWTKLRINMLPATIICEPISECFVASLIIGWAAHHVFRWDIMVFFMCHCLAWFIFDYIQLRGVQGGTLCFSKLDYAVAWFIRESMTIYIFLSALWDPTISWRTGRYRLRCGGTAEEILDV
How it was run: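 Test compound, 10 μM final, was run against human GCS from transfected Expi293F microsome fractions, using substrate solution of 6 μM C8 ceramide (in DOPC liposomes) plus 3.4 μM UDP-glucose, pH 7.5 Tris buffer, 60 min, room temperature. Product C8 glucosylceramide measured by Rapidfire MS/MS against an internal standard, % inhibition referenced to no-enzyme and DMSO wells.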

In order of falling inhibition at 10 µM:
1. O=C1c2ccnc(-c3ccc(F)cc3OCC(F)(F)F)c2CN1c1ccc(OC2CCOCC2)cc1 [Example 98, 4-[4-fluoro-2-(2,2,2-trifluoroethoxy)phenyl]-2-{4-[(oxan-4-yl)oxy]phenyl}-2,3-dihydro-1H-pyrrolo[3,4-c]pyridin-1-one]  100%
2. O=C1c2ccnc(-c3ccc(F)cc3OCC3(F)COC3)c2CN1c1ccc(OC(F)F)cc1 [Example 127, 2-[4-(difluoromethoxy)phenyl]-4-{4-fluoro-2-[(3-fluorooxetan-3-yl)methoxy]phenyl}-2,3-dihydro-1H-pyrrolo[3,4-c]pyridin-1-one]  100%
3. O=C1c2ccnc(-c3ccncc3OCC(F)(F)F)c2CN1c1ccc(OC(F)F)cc1 [Example 104, 2-[4-(difluoromethoxy)phenyl]-4-[3-(2,2,2-trifluoroethoxy)pyridin-4-yl]-2,3-dihydro-1H-pyrrolo[3,4-c]pyridin-1-one]  99%
4. O=C1c2ccnc(-c3ccc(F)cc3OCc3ccccc3)c2CN1c1ccc(OC(F)F)cc1 [Example 114, 4-[2-(benzyloxy)-4-fluorophenyl]-2-[4-(difluoromethoxy)phenyl]-2,3-dihydro-1H-pyrrolo[3,4-c]pyridin-1-one]  99%
5. O=C1c2ccnc(-c3ccc(F)cc3OCC3(F)CC3)c2CN1c1ccc(OC(F)F)cc1 [Example 128, 2-[4-(difluoromethoxy)phenyl]-4-{4-fluoro-2-[(1-fluorocyclopropyl)methoxy]phenyl}-2,3-dihydro-1H-pyrrolo[3,4-c]pyridin-1-one]  99%
6. O=C1c2ccnc(-c3ccc(F)cc3OCC3CC3)c2CN1c1ccc(OC(F)F)cc1 [Example 129, 4-[2-(cyclopropylmethoxy)-4-fluorophenyl]-2-[4-(difluoromethoxy)phenyl]-2,3-dihydro-1H-pyrrolo[3,4-c]pyridin-1-one]  99%
7. O=C1c2ccnc(-c3ccccc3OCC3CC(F)(F)C3)c2CN1c1ccc(F)cc1 [Example 103, 4-{2-[(3,3-difluorocyclobutyl)methoxy]phenyl}-2-(4-fluorophenyl)-2,3-dihydro-1H-pyrrolo[3,4-c]pyridin-1-one]  98%
8. N#CCOc1cc(F)ccc1-c1nccc2c1CN(c1ccc(OC(F)F)nc1)C2=O [Example 112, (2-{2-[6-(difluoromethoxy)pyridin-3-yl]-1-oxo-2,3-dihydro-1H-pyrrolo[3,4-c]pyridin-4-yl}-5-fluorophenoxy)acetonitrile]  98%
9. O=C(c1ccc(-c2nccc3c2CN(c2ccc(OC(F)F)cc2)C3=O)c(OC(F)F)c1)N1CCC1 [Example 124, 4-[4-(azetidine-1-carbonyl)-2-(difluoromethoxy)phenyl]-2-[4-(difluoromethoxy)phenyl]-2,3-dihydro-1H-pyrrolo[3,4-c]pyridin-1-one]  98%
10. CCS(=O)(=O)c1ccc(N2Cc3c(ccnc3-c3ccc(F)cc3OCC(F)(F)F)C2=O)cc1 [Example 110, 2-[4-(ethanesulfonyl)phenyl]-4-[4-fluoro-2-(2,2,2-trifluoroethoxy)phenyl]-2,3-dihydro-1H-pyrrolo[3,4-c]pyridin-1-one]  97%
11. O=C1c2ccnc(-c3ccc(F)cc3OCC3COC3)c2CN1c1ccc(OC(F)F)cc1 [Example 126, 2-[4-(difluoromethoxy)phenyl]-4-{4-fluoro-2-[(oxetan-3-yl)methoxy]phenyl}-2,3-dihydro-1H-pyrrolo[3,4-c]pyridin-1-one]  97%
12. CC(C)n1cc(N2Cc3c(ccnc3-c3ccc(F)cc3OCC(F)(F)F)C2=O)cn1 [Example 97, 4-[4-fluoro-2-(2,2,2-trifluoroethoxy)phenyl]-2-[1-(propan-2-yl)-1H-pyrazol-4-yl]-2,3-dihydro-1H-pyrrolo[3,4-c]pyridin-1-one]  96%
13. O=C1c2ccnc(-c3ccc(F)cc3OCC(F)(F)F)c2CN1c1cnc(OC(F)F)cn1 [Example 100, 2-[5-(difluoromethoxy)pyrazin-2-yl]-4-[4-fluoro-2-(2,2,2-trifiuoroethoxy)phenyl]-2,3-dihydro-1H-pyrrolo[3,4-c]pyridin-1-one]  96%
14. O=C1c2ccnc(-c3ccncc3OCC(F)(F)F)c2CN1c1ccc(OC(F)F)nc1 [Example 105, 2-[6-(difluoromethoxy)pyridin-3-yl]-4-[3-(2,2,2-trifluoroethoxy)pyridin-4-yl]-2,3-dihydro-1H-pyrrolo[3,4-c]pyridin-1-one]  96%
15. O=C(c1ccc(-c2nccc3c2CN(c2ccc(OC(F)F)nc2)C3=O)c(OCC(F)(F)F)c1)N1CCC1 [Example 118, 4-[4-(azetidine-1-carbonyl)-2-(2,2,2-trifluoroethoxy)phenyl]-2-[6-(difluoromethoxy)pyridin-3-yl]-2,3-dihydro-1H-pyrrolo[3,4-c]pyridin-1-one]  96%
16. O=C1c2ccnc(-c3ccc(F)cc3OCC(F)(F)F)c2CN1c1ccc(S(=O)(=O)C(F)F)cc1 [Example 139, 2-[4-(difluoromethanesulfonyl)phenyl]-4-[4-fluoro-2-(2,2,2-trifluoroethoxy)phenyl]-2,3-dihydro-1H-pyrrolo[3,4-c]pyridin-1-one]  96%
17. COc1cc(C(=O)N2CCC2)ccc1-c1nccc2c1CN(c1ccc(OC(F)F)cc1)C2=O [Example 122, 4-[4-(azetidine-1-carbonyl)-2-methoxyphenyl]-2-[4-(difluoromethoxy)phenyl]-2,3-dihydro-1H-pyrrolo[3,4-c]pyridin-1-one]  95%
18. O=C1c2ccnc(-c3ccc(F)cc3OCC(F)(F)F)c2CN1c1ccc(OC2COC2)cc1 [Example 106, 4-[4-fluoro-2-(2,2,2-trifluoroethoxy)phenyl]-2-{4-[(oxetan-3-yl)oxy]phenyl}-2,3-dihydro-1H-pyrrolo[3,4-c]pyridin-1-one]  94%
19. O=C(c1ccc(-c2nccc3c2CN(c2ccc(OC(F)F)nc2)C3=O)c(OC(F)F)c1)N1CCC1 [Example 125, 4-[4-(azetidine-1-carbonyl)-2-(difluoromethoxy)phenyl]-2-[6-(difluoromethoxy)pyridin-3-yl]-2,3-dihydro-1H-pyrrolo[3,4-c]pyridin-1-one]  94%
20. O=C1c2ccnc(-c3ccc(F)cc3OCC(F)(F)F)c2CN1c1ncc(OC(F)F)cn1 [Example 99, 2-[5-(difluoromethoxy)pyrimidin-2-yl]-4-[4-fluoro-2-(2,2,2-trifluoroethoxy)phenyl]-2,3-dihydro-1H-pyrrolo[3,4-c]pyridin-1-one]  92%
21. Fc1ccc(N2Cc3ccnc(-c4ccc(F)cc4OCC(F)(F)F)c3C2)cc1 [Example 111, 2-(4-fluorophenyl)-4-[4-fluoro-2-(2,2,2-trifluoroethoxy)phenyl]-2,3-dihydro-1H-pyrrolo[3,4-c]pyridine]  92%
22. CN(C)C(=O)c1ccc(N2Cc3c(ccnc3-c3ccc(F)cc3OCC(F)(F)F)C2=O)cc1 [Example 102, 4-{4-[4-fluoro-2-(2,2,2-trifluoroethoxy)phenyl]-1-oxo-1,3-dihydro-2H-pyrrolo[3,4-c]pyridin-2-yl}-N,N-dimethylbenzamide]  90%
23. O=C1c2ccnc(-c3ccc(F)cc3OCC(F)(F)F)c2CN1c1ccc(OCC(F)F)nc1 [Example 131, 2-[6-(2,2-difluoroethoxy)pyridin-3-yl]-4-[4-fluoro-2-(2,2,2-trifiuoroethoxy)phenyl]-2,3-dihydro-1H-pyrrolo[3,4-c]pyridin-1-one]  87%
24. COc1cc(C(=O)N2CCC2)ccc1-c1nccc2c1CN(c1ccc(OC(F)F)nc1)C2=O [Example 123, 4-[4-(azetidine-1-carbonyl)-2-methoxyphenyl]-2-[6-(difluoromethoxy)pyridin-3-yl]-2,3-dihydro-1H-pyrrolo[3,4-c]pyridin-1-one]  85%
25. O=C1c2ccnc(-c3ccc(F)cc3OCc3ccccc3)c2CN1c1ccc(OC(F)F)nc1 [Example 101, 4-[2-(benzyloxy)-4-fluorophenyl]-2-[6-(difluoromethoxy)pyridin-3-yl]-2,3-dihydro-1H-pyrrolo[3,4-c]pyridin-1-one]  79%
26. COCCOc1cc(F)ccc1-c1nccc2c1CN(c1ccc(OC(F)F)nc1)C2=O [Example 113, 2-[6-(difluoromethoxy)pyridin-3-yl]-4-[4-fluoro-2-(2-methoxyethoxy)phenyl]-2,3-dihydro-1H-pyrrolo[3,4-c]pyridin-1-one]  66%
27. O=C1CC2=C(CN(c3ccc(F)cc3)C2=O)N(c2ccc(F)cc2OCC(F)(F)F)N1 [Example 115, 6-(4-fluorophenyl)-1-[4-fluoro-2-(2,2,2-trifluoroethoxy)phenyl]-6,7-dihydro-1H-pyrrolo[3,4-c]pyridazine-3,5(2H,4H)-dione]  65%
28. CS(=O)(=O)c1ccc(N2Cc3c(ccnc3-c3ccc(F)cc3OCC(F)(F)F)C2=O)nc1 [Example 108, 4-[4-fluoro-2-(2,2,2-trifluoroethoxy)phenyl]-2-[5-(methanesulfonyl)pyridin-2-yl]-2,3-dihydro-1H-pyrrolo[3,4-c]pyridin-1-one]  64%
29. COc1cc(C(=O)N2CCC2)ccc1-c1nccc2c1CN(c1ccc(F)cc1)C2=O [Example 120, 4-[4-(azetidine-1-carbonyl)-2-methoxyphenyl]-2-(4-fluorophenyl)-2,3-dihydro-1H-pyrrolo[3,4-c]pyridin-1-one]  61%
